Values of other authors, collected in US20170265459A1, “PROPAGULE COATINGS” (E I DU PONT DE NEMOURS AND COMPANY, priority 2014, published 2017).

CNC(=O)c1cc(Cl)cc(C)c1NC(=O)c1cc(Br)nn1-c1ncccc1Cl [Chlorantraniliprole, chlorantraniliprole]
water solubility at 20° C.: about 1 milligram per liter

CNC(=O)c1cc(C#N)cc(C)c1NC(=O)c1cc(Br)nn1-c1ncccc1Cl [Cyantraniliprole, cyantraniliprole]
water solubility at 20° C.: about 14.2 milligram per liter
